Legend:
[1] = tested on: trichophyton mentagrophytes; assay: In vitro antifungal MIC for molds (NCCLS M-38P); type: cell-based
Method: (§1) Extracts/fractions/pure compounds obtained from B. vitiensis were tested in in-vitro antifungal activity against five pathogenic fungi in terms of minimum inhibitory concentration (mic,mg/ml) following reference methods. Mics for yeasts: Candida albicans (ca), Cryptococcus neoformans (cn) and Sporothrix schenckii (spo) were determined by broth micro-dilution method according to guide lines of nccls documents m-27a1 (National Committee for Clinical Standards (1997) reference method for broth dilution. Antifungal susceptibility testing of yeast approved standards document m-27a, nccls, wayne, Pa.) In RPMI-1640 medium buffered at pH 7.0 with 0.165 m morpholine propane sulphonic acid (mops: Sigma USA moris; Mo.). Assays were performed in flat bottomed 96 wells microlitre plate. Stock solution of products were prepared in DMSO and diluted by two-fold serial dilution. […] The susceptibilities of molds Aspergillus fumigatus (af) and Frichophyton mentagrophytes (tm) were determined by the NCCLS proposed document m-38p2 (National Committee for Clinical laboratory Standards (1997) reference method for broth dilution antifungal susceptibility testing of Aspergillus, proposed standards document m-38 p, nccls, wayne, Pa.). […]

Aspergillus fumigatus = assay: In vitro antifungal MIC for molds (NCCLS M-38P); type: cell-based; design: mic against af: unit not given here
Method: as §1

Candida albicans = assay: In vitro antifungal MIC, broth micro-dilution (NCCLS M-27A); type: cell-based
Method: (§2) Extracts/fractions/pure compounds obtained from B. vitiensis were tested in in-vitro antifungal activity against five pathogenic fungi in terms of minimum inhibitory concentration (mic,mg/ml) following reference methods. Mics for yeasts: Candida albicans (ca), Cryptococcus neoformans (cn) and Sporothrix schenckii (spo) were determined by broth micro-dilution method according to guide lines of nccls documents m-27a1 (National Committee for Clinical Standards (1997) reference method for broth dilution. Antifungal susceptibility testing of yeast approved standards document m-27a, nccls, wayne, Pa.) In RPMI-1640 medium buffered at pH 7.0 with 0.165 m morpholine propane sulphonic acid (mops: Sigma USA moris; Mo.). Assays were performed in flat bottomed 96 wells microlitre plate. Stock solution of products were prepared in DMSO and diluted by two-fold serial dilution. The working suspension (0.5×103 to 2.5×103) of the innoculum, prepared spectrophotometrically (0.5 mc Farland turbidity standard) was made by a 1:50 dilution followed by a 1:20 dilution of the seeded broth in RPMI-1640. Suitable controls were maintained simultaneously. Plates were incubated at 35° C. and observed visually at 24 hr for ca and 48 hr cn and spo. The susceptibilities of molds Aspergillus fumigatus (af) and Frichophyton mentagrophytes (tm) were determined by the NCCLS proposed document m-38p2 (National Committee for Clinical laboratory Standards (1997) reference method for broth dilution antifungal susceptibility testing of Aspergillus, proposed standards document m-38 p, nccls, wayne, Pa.). In brief, cultures were grown on sabouraud dextrose agar at 35° C. until sporulation occurred. Spores were suspended in 0.85% normal saline and diluted in RPMI-1640 to yield 104 cf p/ml.

Cryptococcus neoformans = assay: as above; type: cell-based
Method: as §2

Sporothrix schenckii = assay: as above; type: cell-based
Method: as §2

[2] = tested on: Aspergillus niger, A. oryzae, Penicillium citrinum, P. chrysogenum, Mucor spinescens, Cladosporium herbarium, Rhodotorula rubra, Trichophyton mentagrophytes, T.; conditions: panel of eleven fungi; literature report; cited from earlier work
human spermatozoa = assay: Spermicidal activity in vitro, Sander Cramer assay; type: cell-based
Method: The spermicidal activity was determined by the Sander Cramer assay (Sander, F. V., Cramer, S. D., Human Fertility, (1941) Vol. 6, p-134) using physiological saline (0.85% NaCl). Aqueous solutions (1.0% i.e. 10 mg/ml) of different fractions of B. vitiensis were prepared in physiological saline, which were diluted further up to a concentration of 0.01%. Human semen (0.2 ml) was mixed with each test solution (1.0 ml) separately and vortexed for 10 s. A wet mount of each preparation was immediately examined under a phase contrast microscope. The lowest spermicidal concentration that completely immobilized 100% of the spermatozoa within 20 s. was referred to as MEC (minimum effective concentration). The activity was confirmed in three different semen samples with >50×10^6/ml sperm count and >50% motility.

[3] = read at 48 hr, tested at 1000-1.95 mg/ml

With Bivittoside-D [K007] the mic against tm [1] was 1.56 mg/mL, the “Mics against pathogenic fungi, tm” value ([1]; tested at 1000-1.95 mg/ml) was 1.56 μg/mi and the mic against af (Aspergillus fumigatus; Aspergillus fumigatus) was 12.57. For the same substance, the “Mics against pathogenic fungi, Af” value (Aspergillus fumigatus; aspergillus fumigates, tested at 1000-1.95 mg/ml) was 12.5 μg/mi, the mic against ca (Candida albicans) was 3.12 µg/mL and the “Mics against pathogenic fungi, ca” value (Candida albicans; read at 24 hr, tested at 1000-1.95 mg/ml) was 3.12 μg/mi. The mic against cn (Cryptococcus neoformans) was 6.25 mg/mL, the “Mics against pathogenic fungi, Cn” value (Cryptococcus neoformans; [3]) was 6.25 μg/mi and the mic against spo (Sporothrix schenckii) was 6.25 mg/mL. The “Mics against pathogenic fungi, spo” value (Sporothrix schenckii; [3]) was 1.56 μg/mi, the “antifungal activities (in words)” value [2] was “significant antifungal activities” and the “spermicidal activity (in words)” value (human spermatozoa; in vitro model) was “promising spermicidal”. For the same substance, the “Mec (minimum effective concentration)” value (human spermatozoa; lowest concentration that completely immobilized 100% of human spermatozoa within 20 s) was 0.05%.
